Experiments:
[1] = target: KRAS^G12D-FMe.RAF1^RBDCRD complex (Homo sapiens, UniProt P01116, G12D); experiment: SHG assay: binding to bilayer-tethered KRAS G12D/RAF1 complex; settings: GppNHp-loaded complex on PS bilayer; compound 0.027-40 μM, monitored over 60 min
Protocol: Compounds suspected to carry intrinsic SHG activity were tested in the presence of an unlabeled KRAS^G12D-FMe.RAF1^RBDCRD complex to monitor binding. PS bilayer was prepared from PS-enriched small unilamellar vesicles (SUVs) purchased from Biodesy, Inc. The concentrated SUVs were diluted in TBS buffer containing 5 mM CaCl2 and incubated on a glass-bottom 384-well Biodesy Delta™ assay plate to allow bilayer formation. Equimolar amounts of GppNHp-loaded KRAS^G12D-FMe and RAF1^RBDCRD were mixed and incubated together on PS bilayer overnight at 4° C. The following day, untethered protein was removed by washing with assay buffer (20 mM Hepes, pH 7.4, […], 1 mM TCEP, 5 μM GppNHp). The SHG signal produced by bilayer-tethered complex was ready using the Biodesy Delta™ platform where each well was pulsed with an 800 nm laser and the resulting second harmonic signal intensity at 400 nm was collected. Compounds were diluted into the same assay buffer and applied to the complex at a final concentration range spanning 0.027 μM-40 μM and the SHG intensity of each well was monitored at 5 minute intervals over a 60 minute time period.

[2] = system: Phospho-ERK (Thr202/Tyr204) in MiaPaCa-2 cells; experiment: pERK inhibition in MiaPaca-2 cell line (HTRF); type: cell-based; settings: Homo sapiens, MIA PaCa-2, 1 hour incubation with compound
Protocol: MiaPaCa-2 cells (ATCC CRL-1420) were cultured in high glucose DMEM (Gibco 11965092) containing 10% fetal bovine serum (Gibco 1993708) and 1× Penicillin/Streptomycin, at 37° C. in a humid atmosphere of 5% CO2 in the air. Cells were plated in tissue-culture treated 96-well plates at a density of 10,000 cells/well and allowed to attach for 16 hours. The medium was then removed, and diluted compounds were added in a final concentration of 0.5% DMSO. After 1 hour of incubation, cells were lysed by the lysis buffer supplied with the Phospho-ERK (Thr202/Tyr204) cellular HTRF kit (Cisbio 64ERKPEH) and transferred to a 384-well low-volume white plate (PerkinElmer 6008280). The cell lysates were treated with the detection reagents supplied with the HTRF kit for 4 hours at ambient temperature in darkness. Two fluorescence intensities at the wavelengths (665 and 620 nm) were measured by the Envision plate reader (Perkin Elmer), and the data were processed and fitted to a 4-parameter logistic model for IC50 calculation (GraphPad Prism 9).

Compound	EC50 [1]	IC50 [2]
N#Cc1cc(-c2ncc(C3=CCN(C(=O)C4(C#N)CC4)C3)c(N3CCC(CN)C3)n2)ccc1Cl (stereo not shown) [Compound 30]	10 to 50 µM	1 to 10 µM
Cc1ccc(-c2ncc(CNS(=O)(=O)c3ccccc3)c(N3CCC(CN)C3)n2)cc1Cl (stereo not shown) [Compound 94]	1 to 10 µM	1 to 10 µM
N#CC1(C(=O)NCc2cnc(-c3ccc4c(c3)CC4)nc2N2CCC(CN)C2)CC1 (stereo not shown) [Compound 117]	–	1 to 10 µM
Cc1ccc(-c2ncc(NC(=O)c3ccccc3)c(N3CCC(CN)C3)n2)cc1Cl (stereo not shown) [Compound 114]	–	1 to 10 µM
Cc1ccc(-c2ncc(C3=CCNC3)c(N3CCC(CN)C3)n2)cc1C(F)(F)F (stereo not shown) [Compound 32]	0.1 to 1 µM	1 to 10 µM
N#CC1(C(=O)NCc2cnc(-c3ccc(Cl)cc3F)nc2N2CCC(CN)C2)CC1 (stereo not shown) [Compound 24]	–	10 to 50 µM
Cc1ccc(-c2ncc(CNC(=O)C3(C)COC3)c(N3CCC(CN)C3)n2)cc1Cl (stereo not shown) [Compound 80]	10 to 50 µM	1 to 10 µM
NCCOc1nc(-c2ccc(Cl)c(C(F)(F)F)c2)ncc1C1=CCNC1 [Compound 34, 2-[2-[4-chloro-3-(trifluoromethyl)phenyl]-5-(2,5-dihydro-1H-pyrrol-3-yl)pyrimidin-4-yl]oxyethanamine]	0.1 to 1 µM	1 to 10 µM
NCc1cnc(-c2ccc(Cl)c(C(F)(F)F)c2)nc1N1CC[C@@H](CN)C1 [Compound 1]	1 to 10 µM	10 to 50 µM
N#Cc1cc(-c2ncc(CNC(=O)C3(F)CC3)c(N3CCC(CN)C3)n2)ccc1Cl (stereo not shown) [Compound 35]	10 to 50 µM	1 to 10 µM
NCC1CCN(c2nc(-c3ccc(Cl)c(C(F)(F)F)c3)ncc2CNC(=O)C2(F)CC2)C1 (stereo not shown) [Compound 7]	1 to 10 µM	1 to 10 µM
Cc1ccc(-c2ncc(NS(=O)(=O)C3CC3)c(N3CCC(CN)C3)n2)cc1Cl (stereo not shown) [Compound 111]	–	1 to 10 µM
CN1CCC(Oc2nc(-c3ccc(Cl)c(C(F)(F)F)c3)ncc2CNC(=O)C2(C#N)CC2)C1 (stereo not shown) [Compound 79]	10 to 50 µM	–
Cc1ccc(-c2ncc(CNC(=O)C3(C#N)CC3)c(N3CCC(CN(C)C)C3)n2)cc1Cl (stereo not shown) [Compound 129]	1 to 10 µM	–
NCC1CCN(c2nc(-c3ccc(C(F)(F)F)cc3F)ncc2C2=CCNC2)C1 (stereo not shown) [Compound 8]	–	1 to 10 µM
N#CC1(C(=O)NCc2cnc(-c3cc(F)c(C(F)(F)F)c(F)c3)nc2N2CCC(CN)C2)CC1 (stereo not shown) [Compound 137]	1 to 10 µM	–
NCC1CCN(c2nc(-c3ccc(Cl)c(C(F)(F)F)c3)ncc2OC2CCNC2)C1 (stereo not shown) [Compound 15]	–	1 to 10 µM
C#CC1(C(=O)NCc2cnc(-c3ccc(Cl)c(C(F)(F)F)c3)nc2N2CCC(CN)C2)CC1 (stereo not shown) [Compound 145]	1 to 10 µM	–
NCCOc1cnc(-c2ccc(Cl)c(C(F)(F)F)c2)nc1N1CC[C@@H](CN)C1 [Compound 3, (S)-2-((4-(3-(aminomethyl)pyrrolidin-1-yl)-2-(4-chloro-3-(trifluoromethyl)phenyl)pyrimidin-5-yl)oxy)ethan-1-amine]	–	1 to 10 µM
Cc1ccc(-c2ncc(OCC(=O)N(C)C)c(N3CCC(CN)C3)n2)cc1Cl (stereo not shown) [Compound 127]	–	1 to 10 µM
Cc1ccc(-c2ncc(CNC(=O)C3CN(C)C3)c(N3CCC(CN)C3)n2)cc1Cl (stereo not shown) [Compound 86]	1 to 10 µM	–
Cc1c(Cl)cc(-c2ncc(CNC(=O)C3(C#N)CC3)c(N3CCC(CN)C3)n2)cc1Cl (stereo not shown) [Compound 139]	1 to 10 µM	–
N#CC1(C(=O)NCc2cnc(-c3ccc4ccccc4c3)nc2N2CCC(CN)C2)CC1 (stereo not shown) [Compound 64]	–	10 to 50 µM
CS(=O)(=O)NCc1cnc(-c2ccc(Cl)c(C(F)(F)F)c2)nc1N1CCC(CN)C1 (stereo not shown) [Compound 6, N-[[4-[3-(aminomethyl)pyrrolidin-1-yl]-2-[4-chloro-3-(trifluoromethyl)phenyl]pyrimidin-5-yl]methyl]methanesulfonamide]	1 to 10 µM	–
CN(C)CC1CCN(c2nc(-c3cc(Cl)cc(/C=C/c4ccccc4)c3)ncc2CNC(=O)C2(C#N)CC2)C1 (stereo not shown) [Compound 144]	1 to 10 µM	–

Compound	EC50 [1]	IC50 [2]
NCC1CCN(c2nc(-c3ccc(Cl)cc3F)ncc2C2=CCNC2)C1 (stereo not shown) [Compound 11]	–	1 to 10 µM
CN1CC(Oc2nc(-c3ccc(Cl)c(C(F)(F)F)c3)ncc2CNC(=O)C2(C#N)CC2)C1 [Compound 78]	10 to 50 µM	–
CCOC(=O)NCc1cnc(-c2ccc(C(F)(F)F)cc2F)nc1N1CCC(CN)C1 (stereo not shown) [Compound 21, ethyl N-[[4-[3-(aminomethyl)pyrrolidin-1-yl]-2-[2-fluoro-4-(trifluoromethyl)phenyl]pyrimidin-5-yl]methyl]carbamate]	–	10 to 50 µM
C#Cc1cc(-c2ncc(CNC(=O)C3(C#N)CC3)c(N3CCC(CN(C)C)C3)n2)cc(F)c1C (stereo not shown) [Compound 147, 1-cyano-N-[[4-[3-[(dimethylamino)methyl]pyrrolidin-1-yl]-2-(3-ethynyl-5-fluoro-4-methyl-phenyl)pyrimidin-5-yl]methyl]cyclopropanecarboxamide]	10 to 50 µM	–
Cc1ccc(-c2ncc(CNC(=O)C3CNC3)c(N3CCC(CN)C3)n2)cc1Cl (stereo not shown) [Compound 85]	1 to 10 µM	–
Cc1ccc(-c2ncc(OCC(=O)Nc3ccccc3)c(N3CCC(CN)C3)n2)cc1Cl (stereo not shown) [Compound 131]	1 to 10 µM	–
Cc1ccc(-c2ncc(CNC(=O)C3(C#N)CC3)c(N3CCN(C)CC3)n2)cc1Cl [Compound 115]	–	1 to 10 µM
CN(C)CC1CCN(c2nc(-c3cc(Cl)cc(-c4ccccc4)c3)ncc2CNC(=O)C2(C#N)CC2)C1 (stereo not shown) [Compound 142]	1 to 10 µM	–
NCC1CCN(c2nc(-c3ccc(Cl)c(C(F)(F)F)c3)ncc2OC2COC2)C1 (stereo not shown) [Compound 16]	–	1 to 10 µM
N#CC1(C(=O)NCc2cnc(-c3ccc(Cl)c(OC(F)(F)F)c3)nc2N2CCC(CN)C2)CC1 (stereo not shown) [Compound 141]	1 to 10 µM	–
Cc1ccc(-c2ncc(CNC(=O)C(F)(F)c3ccccc3)c(N3CCC(CN)C3)n2)cc1Cl (stereo not shown) [Compound 134]	1 to 10 µM	–
Cc1ccc(-c2ncc(CNc3ccccc3)c(N3CCC(CN)C3)n2)cc1Cl (stereo not shown) [Compound 130]	1 to 10 µM	–
NCC1CCN(c2nc(-c3ccc(Cl)c(C(F)(F)F)c3)ncc2OC2CNC2)C1 (stereo not shown) [Compound 13]	–	1 to 10 µM
Cc1ccc(-c2ncc(CNCC3CC3)c(N3CCC(CN)C3)n2)cc1Cl (stereo not shown) [Compound 132]	1 to 10 µM	–
CN(C)CC1CCN(c2nc(-c3cc(Cl)cc(C#Cc4ccccc4)c3)ncc2CNC(=O)C2(C#N)CC2)C1 (stereo not shown) [Compound 143]	1 to 10 µM	–
Cc1ccc(-c2ncc(CNC(=O)C(F)c3ccccc3)c(N3CCC(CN)C3)n2)cc1Cl (stereo not shown) [Compound 133]	1 to 10 µM	–
N#Cc1cc(-c2ncc(C3=CCNC3)c(N3CCC(CN)C3)n2)ccc1Cl (stereo not shown) [Compound 22]	–	1 to 10 µM
NCc1cnc(-c2ccc(Cl)c(C(F)(F)F)c2)nc1N1CCC(CN)C1 (stereo not shown) [Compound 4]	1 to 10 µM	–
Cc1ccc(-c2ncc(CNC(=O)C3(F)CC3)c(CN3CCN(C)CC3)n2)cc1Cl [Compound 128, N-[[2-(3-chloro-4-methyl-phenyl)-4-[(4-methylpiperazin-1-yl)methyl]pyrimidin-5-yl]methyl]-1-fluoro-cyclopropanecarboxamide]	–	10 to 50 µM
CN(C)CC1CCN(c2nc(-c3ccc(Cc4ccccc4)c(Cl)c3)ncc2CNC(=O)C2(C#N)CC2)C1 (stereo not shown) [Compound 150]	1 to 10 µM	–
CN(C)CC1CCN(c2nc(-c3cc(Cl)cc(Cc4ccccc4)c3)ncc2CNC(=O)C2(C#N)CC2)C1 (stereo not shown) [Compound 148]	1 to 10 µM	–
Cc1ccc(-c2ncc(CNC(=O)C3Cc4ccccc4O3)c(N3CCC(CN)C3)n2)cc1Cl (stereo not shown) [Compound 135]	1 to 10 µM	–
Cc1ccc(-c2ncc(CNC(=O)C3(F)CC3)c(O[C@@H]3CNC[C@@H]3O)n2)cc1Cl (racemic) [Compound 100]	–	10 to 50 µM
Cc1c(F)cc(-c2ncc(CNC(=O)C3(C#N)CC3)c(N3CCC(CN)C3)n2)cc1[N+](=O)[O-] (stereo not shown) [Compound 140]	1 to 10 µM	–
CN(C)CC1CCN(c2nc(-c3cc(Cl)cc(C(F)c4ccccc4)c3)ncc2CNC(=O)C2(C#N)CC2)C1 (stereo not shown) [Compound 149]	1 to 10 µM	–

— US20240327356A1, “PYRIMIDINE BASED RAS MODULATORS AND USES THEREOF” (QUANTA THERAPEUTICS, INC., priority 2021, published 2024)
